In one assay the target is human TACE (Homo sapiens (Human), UniProt P78536). The note with it: read-out: TACE potency IC50.
Assay [1] has as its target T1, human ADAMTS-5 (Homo sapiens (Human), UniProt Q9UNA0). The settings on record: read-out: hADAMTS-5 potency IC50.
Assay [2] has as its target T1, human ADAMTS-5. The settings on record: read-out: hADAMTS-5 potency IC50. The source holds these as a separate data set.
Description: Finally, the fluorescence is read on the Envision (Perkin Elmer) after an incubation of 90 min at 37° C.
Another assay concerns the target human MMP13 (Homo sapiens (Human), UniProt P45452). The note with it: read-out: hMMP-13 potency IC50.
The next assay addresses rnADAMTS-5 (1-564-6H) (Rattus norvegicus, UniProt Q6TY19). The note with it: read-out: Rat ADAMTS-5 potency IC50.

pIC50: −log10 of the molar value. Where two headings read alike, the source gives them in different places.

T1 sequence (Q9UNA0 262-930): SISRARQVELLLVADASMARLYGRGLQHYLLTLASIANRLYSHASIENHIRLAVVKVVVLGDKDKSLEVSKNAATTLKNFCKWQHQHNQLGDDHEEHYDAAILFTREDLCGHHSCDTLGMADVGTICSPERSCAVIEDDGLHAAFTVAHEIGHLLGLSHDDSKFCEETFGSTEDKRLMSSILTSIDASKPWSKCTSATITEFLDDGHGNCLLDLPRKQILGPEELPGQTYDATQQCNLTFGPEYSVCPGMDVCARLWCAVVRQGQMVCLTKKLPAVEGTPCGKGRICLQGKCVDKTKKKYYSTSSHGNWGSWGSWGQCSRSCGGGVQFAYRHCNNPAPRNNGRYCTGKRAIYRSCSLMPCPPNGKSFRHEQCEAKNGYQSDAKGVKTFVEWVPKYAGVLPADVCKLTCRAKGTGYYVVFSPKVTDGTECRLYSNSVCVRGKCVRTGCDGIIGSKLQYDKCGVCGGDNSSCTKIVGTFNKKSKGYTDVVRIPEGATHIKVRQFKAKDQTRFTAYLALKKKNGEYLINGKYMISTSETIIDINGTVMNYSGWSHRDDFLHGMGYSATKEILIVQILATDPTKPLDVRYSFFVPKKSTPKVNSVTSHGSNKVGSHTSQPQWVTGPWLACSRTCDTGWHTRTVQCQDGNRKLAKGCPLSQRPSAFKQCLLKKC
human TACE, sequence (P78536 whole entry, looked up, change not shown): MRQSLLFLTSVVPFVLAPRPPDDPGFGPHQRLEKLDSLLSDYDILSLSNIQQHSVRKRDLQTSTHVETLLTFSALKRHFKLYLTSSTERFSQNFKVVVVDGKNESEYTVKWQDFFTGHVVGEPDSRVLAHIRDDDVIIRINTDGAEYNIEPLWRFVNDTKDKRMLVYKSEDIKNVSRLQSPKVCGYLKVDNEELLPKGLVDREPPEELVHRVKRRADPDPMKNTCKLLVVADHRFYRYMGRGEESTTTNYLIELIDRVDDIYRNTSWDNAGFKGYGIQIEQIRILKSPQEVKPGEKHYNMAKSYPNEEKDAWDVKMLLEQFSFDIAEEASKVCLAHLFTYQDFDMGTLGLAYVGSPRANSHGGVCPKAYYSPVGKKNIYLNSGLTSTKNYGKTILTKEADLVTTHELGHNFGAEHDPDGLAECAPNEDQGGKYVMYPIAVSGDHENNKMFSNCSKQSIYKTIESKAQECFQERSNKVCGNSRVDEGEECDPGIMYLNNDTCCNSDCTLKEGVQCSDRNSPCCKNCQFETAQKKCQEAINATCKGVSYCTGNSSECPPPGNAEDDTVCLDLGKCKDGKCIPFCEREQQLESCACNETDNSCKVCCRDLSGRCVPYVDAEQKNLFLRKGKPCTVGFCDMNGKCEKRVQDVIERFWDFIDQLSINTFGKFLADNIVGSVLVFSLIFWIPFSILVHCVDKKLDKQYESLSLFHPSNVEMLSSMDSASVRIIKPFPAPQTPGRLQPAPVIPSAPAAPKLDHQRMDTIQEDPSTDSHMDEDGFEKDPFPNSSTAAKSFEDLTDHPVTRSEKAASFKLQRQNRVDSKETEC
Description for human MMP13: Human MMP13 is preactivated by incubated the enzyme in the same buffer complemented with 1 mM freshly prepared p-Aminophenylmercuric acetate (AMPA) for 1 hour at 37° C.

Consider `O=C1NC(=O)C(CCC(=O)N2CCN(c3ccc4occc4c3)CC2)(c2ccccc2)N1` (centres unmarked) [compound 25, 5-[3-[4-(benzofuran-5-yl)piperazin-1-yl]-3-oxo-propyl]-5-phenyl-imidazolidine-2,4-dione], for which the pIC50 – broadly, the negative decadic logarithm of the IC50, by convention in mol/L – at human TACE was less than 5.70; on human ADAMTS-5 [1], 6.86.
As to `O=C1NC(=O)C(CCC(=O)N2CCN(c3ccc4scnc4c3)CC2)(c2ccccc2)N1` (centres unmarked) [compound 26, 5-[3-[4-(1,3-benzothiazol-5-yl)piperazin-1-yl]-3-oxo-propyl]-5-phenyl-imidazolidine-2,4-dione], the pIC50 at human TACE is less than 5.00; on human ADAMTS-5 [1], 6.15.
Regarding `CC1(CCC(=O)N2CCN(c3ccccc3C#N)CC2)NC(=O)NC1=O` (centres unmarked) [compound 29], the negative-log IC50 (pIC50) on human ADAMTS-5 [1] is less than 4.92; at human ADAMTS-5 [2], less than 5.40.
Consider `CC1(CCC(=O)N2CCN(c3ccccc3F)CC2)NC(=O)NC1=O` (centres unmarked) [compound 30, 5-[3-[4-(2-fluorophenyl)piperazin-1-yl]-3-oxo-propyl]-5-methyl-imidazolidine-2,4-dione], for which the pIC50 at human ADAMTS-5 [1] and at human ADAMTS-5 [2] was less than 5.40 throughout.
Turning to `Cc1ccc(N2CCN(C(=O)CCC3(c4ccccc4)NC(=O)NC3=O)CC2)c(C)c1` (centres unmarked) [compound 31, 5-[3-[4-(2,4-dimethylphenyl)piperazin-1-yl]-3-oxo-propyl]-5-phenyl-imidazolidine-2,4-dione], the pIC50 on human ADAMTS-5 [1] is 5.97.
For the compound `Cc1ccccc1N1CCN(C(=O)CCC2(C(C)C)NC(=O)NC2=O)CC1` (centres unmarked) [compound 32, 5-isopropyl-5-[3-[4-(o-tolyl)piperazin-1-yl]-3-oxo-propyl]imidazolidine-2,4-dione], the pIC50 at human TACE was less than 5.40; on human ADAMTS-5 [1], 6.41.
`CC1(CCC(=O)N2CCN(c3ccc(F)c(F)c3)CC2)NC(=O)NC1=O` (centres unmarked) [compound 37, 5-[3-[4-(3,4-difluorophenyl)piperazin-1-yl]-3-oxo-propyl]-5-methyl-imidazolidine-2,4-dione]: the pIC50 at human TACE is less than 4.70; at human ADAMTS-5 [1] it was 6.64.
In the case of `Cc1ccc(N2CCN(C(=O)CCC3(C)NC(=O)NC3=O)CC2)c(C)c1` (centres unmarked) [compound 38, 5-[3-[4-(2,4-dimethylphenyl)piperazin-1-yl]-3-oxo-propyl]-5-methyl-imidazolidine-2,4-dione], the pIC50 on human ADAMTS-5 [1] is less than 5.40.
Consider `Cc1ccc(C)c(N2CCN(C(=O)CCC3(C)NC(=O)NC3=O)CC2)c1` (centres unmarked) [compound 39, 5-[3-[4-(2,5-dimethylphenyl)piperazin-1-yl]-3-oxo-propyl]-5-methyl-imidazolidine-2,4-dione], for which the values for the pIC50 on human TACE and at human ADAMTS-5 [1] were 6.23 and 6.24, respectively.
Regarding `CC1(CCC(=O)N2CCN(c3cccc(Cl)c3Cl)CC2)NC(=O)NC1=O` (centres unmarked) [compound 41, 5-[3-[4-(2,3-dichlorophenyl)piperazin-1-yl]-3-oxo-propyl]-5-methyl-imidazolidine-2,4-dione], the pIC50 at human ADAMTS-5 [1] was 5.58.
Turning to `CC1(CCC(=O)N2CCN(c3ccccn3)CC2)NC(=O)NC1=O` (centres unmarked) [compound 42, 5-methyl-5-[3-oxo-3-[4-(2-pyridyl)piperazin-1-yl]propyl]imidazolidine-2,4-dione], the pIC50 on human ADAMTS-5 [1] was less than 5.40.
Take `CC1(CCC(=O)N2CCN(c3cccnc3)CC2)NC(=O)NC1=O` (centres unmarked) [compound 43, 5-methyl-5-[3-oxo-3-[4-(3-pyridyl)piperazin-1-yl]propyl]imidazolidine-2,4-dione]: the pIC50 was less than 4.70 at human TACE, less than 4.70 at human MMP13 and 5.82 on human ADAMTS-5 [1].
Turning to `O=C1NC(=O)C(CCC(=O)N2CCN(c3cccnc3)CC2)(c2ccccc2)N1` (centres unmarked) [compound 45, 5-[3-oxo-3-[4-(3-pyridyl)piperazin-1-yl]propyl]-5-phenyl-imidazolidine-2,4-dione], the pIC50 is less than 4.70 on human TACE and 6.69 on human ADAMTS-5 [1].
Consider `CC1(CCC(=O)N2CCN(c3cccc(Br)c3)CC2)NC(=O)NC1=O` (centres unmarked) [compound 48, 5-[3-[4-(3-bromophenyl)piperazin-1-yl]-3-oxo-propyl]-5-methyl-imidazolidine-2,4-dione], for which, at human ADAMTS-5 [1], the pIC50 was 6.41.
Turning to `CC1(CCC(=O)N2CCN(c3ccc(F)c(Cl)c3)CC2)NC(=O)NC1=O` (centres unmarked) [compound 52, 5-[3-[4-(3-chloro-4-fluoro-phenyl)piperazin-1-yl]-3-oxo-propyl]-5-methyl-imidazolidine-2,4-dione], the results for the negative-log IC50 (pIC50) at human TACE and at human ADAMTS-5 [1] were less than 4.70 and 6.55, respectively.
Turning to `CN(C)CCC1(CCC(=O)N2CCN(c3cc(Cl)cc(Cl)c3)CC2)NC(=O)NC1=O` (centres unmarked) [compound 58, 5-[3-[4-(3,5-dichlorophenyl)piperazin-1-yl]-3-oxo-propyl]-5-(2-dimethylaminoethyl)imidazolidine-2,4-dione], the pIC50 on human ADAMTS-5 [1] was less than 4.70.
Take `CC1(CCC(=O)N2CCN(c3nccs3)CC2)NC(=O)NC1=O` (centres unmarked) [compound 59, 5-methyl-5-[3-oxo-3-(4-thiazol-2-ylpiperazin-1-yl)propyl]imidazolidine-2,4-dione]: the pIC50 on human ADAMTS-5 [1] is less than 4.70.
As to `Cc1cc(F)ccc1N1CCN(C(=O)CCC2(C)NC(=O)NC2=O)CC1` (centres unmarked) [compound 61, 5-[3-[4-(4-fluoro-2-methyl-phenyl)piperazin-1-yl]-3-oxo-propyl]-5-methyl-imidazolidine-2,4-dione], the pIC50 on human ADAMTS-5 [1] is 5.53.
Consider `CC1CN(C(=O)CCC2(c3ccccc3)NC(=O)NC2=O)CCN1c1ccccc1` (centres unmarked) [compound 62, 5-[3-(3-methyl-4-phenyl-piperazin-1-yl)-3-oxo-propyl]-5-phenyl-imidazolidine-2,4-dione], for which the pIC50 on human TACE is less than 4.70; at human ADAMTS-5 [1], 6.53.
Take `CC1CN(C(=O)CCC2(C)NC(=O)NC2=O)CCN1c1ccccc1` (centres unmarked) [compound 63, 5-methyl-5-[3-(3-methyl-4-phenyl-piperazin-1-yl)-3-oxo-propyl]imidazolidine-2,4-dione]: the pIC50 was less than 4.70 on human TACE and 5.91 at human ADAMTS-5 [1].
Take `Cc1ccccc1N1CCN(C(=O)CCC2(CN(C)C)NC(=O)NC2=O)CC1` (centres unmarked) [compound 119, 5-(dimethylaminomethyl)-5-[3-[4-(o-tolyl)piperazin-1-yl]-3-oxo-propyl]imidazolidine-2,4-dione]: the pIC50 on human ADAMTS-5 [1] was 5.76.
As for `C[C@@H]1CN(C(=O)CCC2(c3ccccc3)NC(=O)NC2=O)CCN1c1ccccc1` (stereo partly drawn) [compound 131, 5-[3-[(3R)-3-methyl-4-phenyl-piperazin-1-yl]-3-oxo-propyl]-5-phenyl-imidazolidine-2,4-dione], the pIC50 on human ADAMTS-5 [1] is 5.90.
As to `Cc1cccc(C2(CCC(=O)N3CCN(c4cccc(Cl)c4)CC3)NC(=O)NC2=O)c1` (centres unmarked) [compound 141, 5-[3-[4-(3-chlorophenyl)piperazin-1-yl]-3-oxo-propyl]-5-(m-tolyl)imidazolidine-2,4-dione], at human ADAMTS-5 [1], the pIC50 is 6.92.
On the same count and under the same terms, then `CC1CN(C(=O)CCC2(C3CC3)NC(=O)NC2=O)CCN1c1cccc(F)c1` (centres unmarked) [compound 149, 5-cyclopropyl-5-[3-[4-(3-fluorophenyl)-3-methyl-piperazin-1-yl]-3-oxo-propyl]imidazolidine-2,4-dione], with 7.10; and `CC1CN(C(=O)CCC2(C3CC3)NC(=O)NC2=O)CCN1c1cccc(Cl)c1` (centres unmarked) [compound 150, 5-[3-[4-(3-chlorophenyl)-3-methyl-piperazin-1-yl]-3-oxo-propyl]-5-cyclopropyl-imidazolidine-2,4-dione], with 7.02.
With `C[C@H]1CN(C(=O)CC[C@@]2(C3CC3)NC(=O)NC2=O)CCN1c1ccc(Cl)c(Cl)c1` [compound 207, (5S)-5-cyclopropyl-5-[3-[(3S)-4-(3,4-dichlorophenyl)-3-methyl-piperazin-1-yl]-3-oxo-propyl]imidazolidine-2,4-dione], the pIC50 at human TACE was less than 5.40; on human MMP13 it was 5.54; at rnADAMTS-5 (1-564-6H), 8.22; on human ADAMTS-5 [2], 7.92.
For `CN(C)c1cccc(N2CCN(C(=O)CCC3(C4CC4)NC(=O)NC3=O)CC2)c1` (centres unmarked) [compound 209, 5-cyclopropyl-5-[3-[4-[3-(dimethylamino)phenyl]piperazin-1-yl]-3-oxo-propyl]imidazolidine-2,4-dione], the pIC50 at human TACE was less than 5.40; at human MMP13, less than 4.70; on rnADAMTS-5 (1-564-6H) it was 6.25; on human ADAMTS-5 [2], 6.08.
Take `CC(CC1(C)NC(=O)NC1=O)C(=O)N1CCN(c2ccc(F)c(F)c2)CC1` (centres unmarked) [compound 211, 5-[3-[4-(3,4-difluorophenyl)piperazin-1-yl]-2-methyl-3-oxo-propyl]-5-methyl-imidazolidine-2,4-dione]: the pIC50 is 5.43 at human TACE, 6.42 at human MMP13, 7.64 at rnADAMTS-5 (1-564-6H) and 7.32 at human ADAMTS-5 [2].
With `CC(CC1(C)NC(=O)NC1=O)C(=O)N1CCN(c2cc(F)cc(F)c2)[C@@H](C)C1` (stereo partly drawn) [compound 213, 5-[3-[(3S)-4-(3,5-difluorophenyl)-3-methyl-piperazin-1-yl]-2-methyl-3-oxo-propyl]-5-methyl-imidazolidine-2,4-dione], the pIC50 on human TACE is less than 4.70; at human MMP13 it was less than 5.40; on rnADAMTS-5 (1-564-6H), 7.68; on human ADAMTS-5 [2], 7.52.
Taken in the same sequence, the figures for `Cc1ccc(F)cc1N1CCN(C(=O)C(C)CC2(C)NC(=O)NC2=O)C[C@@H]1C` (stereo partly drawn) [compound 216, 5-[3-[(3S)-4-(5-fluoro-2-methyl-phenyl)-3-methyl-piperazin-1-yl]-2-methyl-3-oxo-propyl]-5-methyl-imidazolidine-2,4-dione] were less than 5.40, less than 4.70, 6.60 and 6.52.
Turning to `CC(CC1(C)NC(=O)NC1=O)C(=O)N1CCN(c2ccc(F)c(Cl)c2)[C@@H](C)C1` (stereo partly drawn) [compound 405, 5-{3-[(S)-4-(3-Chloro-4-fluoro-phenyl)-3-methyl-piperazin-1-yl]-2-methyl-3-oxo-propyl}-5-methyl-imidazolidine-2,4-dione], the pIC50 was less than 5.40 on human TACE, 5.63 at human MMP13, 7.74 at rnADAMTS-5 (1-564-6H) and 7.66 on human ADAMTS-5 [2].

The values above are taken from patent publication US9926281B2 (priority 2014, dated 2018).
